In US20170190744A1 (Vicuron Pharmaceuticals, Inc., priority 2015, published 2017):
In brackets after ≈: the same amount, converted by molar mass. Read-outs that look alike come from different tables or passages of the source.

Legend:
MRSA Staph. aureus 3817 = assay: Staph. aureus murine septicaemia, ED50; format: in vivo; conditions: Staphylococcus aureus, sc, 10 min
S. aureus = assay: MIC in broth, serum, serum ultrafiltrate and albumin (protein binding); format: cell-based; conditions: Staphylococcus aureus
Excerpt: This degree of binding was considered in subsequent pharmacodynamic analyses. The degree of binding in human serum would be estimated to be 96%.

[1] = tested on: methicillin-resistant S. aureus (MRSA); assay: Phase II SSTI trial: response in patients with MRSA (MITT); format: in vivo, human; conditions: MITT population
Method: The effectiveness of the three treatment regimens was determined by assessing the patients' clinical response and the documented or presumed microbiological responses. The primary efficacy endpoint was clinical response at the follow-up visit for the clinically evaluable population. Clinical response, for both EOT and FU visits, was categorized as success (cure or improvement) or failure (including indeterminate results). Patients classified as successes must not have received additional systemic antibacterial treatment for their infection. Failure was defined as persistence of one or more local or systemic signs and symptoms of SSTI such that treatment with new or additional systemic antibacterial agents was required for the SSTI.
(§1) Microbiological outcome, a secondary efficacy variable, was assessed in the subpopulation of patients who had microbiologically documented SSTI (i.e., at least one identified baseline pathogen). A microbiologic response was assessed for each Gram-positive pathogen identified at baseline (i.e., eradication, presumed eradication, persistence, presumed persistence). For patients for whom follow-up cultures were not performed, the microbiologic responses for baseline pathogens were presumed on the basis of the clinical response. Microbiologic response by patient at the EOT and FU visits was graded as success (i.e., all Gram-positive organisms eradicated or presumed eradicated) or failure (i.e., at least one Gram-positive organism persisted or presumed to have persisted, multiple pathogens with partial eradication). At both the EOT and FU visits, colonization and superinfection were assessed. At the FU visit, a patient's bacteriological response could also include recurrence.

G 16440 E coli iperperm = assay: MIC (microbiological activity); format: cell-based; conditions: repeat determinations
S. pneumoniae = assay: Murine thigh-infection model; format: in vivo, mice; conditions: for 1 Log Kill mg/kg/72 h / 2 Log Kill mg/kg/72 h: q 72 h regimen; for 1 log kill dose / 2 log kill dose: total dose over 6 days
Method: Each point represents the mean of 4 thighs. Five dose levels, ranging 16-fold were used.
Five different doses (two-fold increases) were used. Study against S. aureus utilized total dose (mg/kg/6 d) levels ranging from 30 to 480 mg/kg/6 d. […] Each point represents the mean of 4 thighs.
Each point represents the mean of four thighs.
Each point represents the mean value from 4 thighs. The static dose, and the doses associated with a 1 and 2 log kill were calculated from the parameters estimated by non-linear regression using the Hill equation.

[2] = Phase II SSTI trial: safety (adverse events); parameters: species or system human; conditions: in vivo
Method: Each patient who received at least one dose of study drug (ITT population) was evaluated for drug safety through monitoring of adverse events (AE), including abnormal clinical laboratory test results and vital signs. AE were rated by the investigator as to their severity (mild, moderate, severe, life-threatening), and by the relationship to the study drug (not related, unlikely related, possibly related, or probably related).

P450 = P450 induction after administration to rats; format: in vivo
Gram-positive pathogen = assay: Phase II SSTI trial: microbiologic response, all organisms; format: in vivo, human; conditions: microbiologically-evaluable population
Method: as §1

Structure (SMILES): CN[C@H]1C(=O)N[C@@H]2Cc3ccc(cc3)Oc3cc4cc(c3O[C@@H]3O[C@H](C(=O)O)[C@@H](O)[C@H](O)[C@H]3NC(=O)CCCCCCCCC(C)C)Oc3ccc(cc3Cl)[C@@H](O)[C@@H]3NC(=O)[C@H](NC(=O)[C@@H]4NC(=O)[C@@H](NC2=O)c2cc(cc(O)c2Cl)Oc2cc1ccc2O)c1ccc(O)c(c1)-c1c(O[C@H]2O[C@H](CO)[C@@H](O)[C@H](O)[C@@H]2O)cc(O)cc1[C@@H](C(=O)NCCCN(C)C)NC3=O [Dalbavancin]
- ED50 (MRSA Staph. aureus 3817): 0.7 mg/kg
- MIC (S. aureus; MRSA, read-out: MIC 95% Human Albumin, S. aureus strain MRSA): 8 µg/mL (≈ 4.4 µM)
- MIC (S. aureus; MRSA, read-out: MIC 95% Human Serum, S. aureus strain MRSA): 8 µg/mL (≈ 4.4 µM)
- MIC (S. aureus; MRSA, read-out: MIC 95% Mouse Serum Ultrafiltrate, S. aureus strain MRSA): 0.5 µg/mL (≈ 0.275 µM)
- MIC (S. aureus; MRSA, read-out: MIC 95% Mouse Serum, S. aureus strain MRSA): 32 µg/mL (≈ 17.6 µM)
- MIC (S. aureus; human serum and albumin): 8 µg/mL (≈ 4.4 µM)
- MIC (S. aureus; mouse serum ultrafiltrate): 0.5 µg/mL (≈ 0.275 µM)
- MIC (S. aureus; read-out: MIC 95% Human Albumin, S. aureus strain 25923): 8 µg/mL (≈ 4.4 µM)
- MIC (S. aureus; read-out: MIC 95% Human Serum, S. aureus strain 25923): 8 µg/mL (≈ 4.4 µM)
- MIC (S. aureus; read-out: MIC 95% Mouse Serum Ultrafiltrate, S. aureus strain 25923): 0.5 µg/mL (≈ 0.275 µM)
- MIC (S. aureus; read-out: MIC 95% Mouse Serum, S. aureus strain 25923): 32 µg/mL (≈ 17.6 µM)
- MIC (S. aureus; read-out: MIC (arithmetic), 95% mouse serum): 32 µg/mL (≈ 17.6 µM)
- clinical success rate at FU in patients with MRSA ([1]; single-dose dalbavancin): 50%
- rate of eradication for MRSA ([1]; single-dose dalbavancin): 50%
- clinical success rate at FU in patients with MRSA ([1]; two-dose dalbavancin): 80%
- rate of eradication for MRSA ([1]; two-dose dalbavancin): 80%
- MIC (G 16440 E coli iperperm): 16 µg/mL (≈ 8.81 µM)
- 1 Log Kill mg/kg/72 h (S. pneumoniae; Mean ± SD of S. pneumoniae strains): 0.93 ± 0.24 mg/kg/72 h
- 24 h AUC/MIC values lower with every 72 h than every 24 h dosing (S. pneumoniae; S. pneumoniae and S. aureus, static dose, 1 and 2 log kill): 1.3 to 2.4 fold
- 1 Log Kill mg/kg/72 h (S. pneumoniae; SP1199, 6 days of therapy): 0.85 mg/kg/72 h
- 2 Log Kill mg/kg/72 h (S. pneumoniae; SP1199, 6 days of therapy): 0.99 mg/kg/72 h
- 1 Log Kill mg/kg/72 h (S. pneumoniae; SP1325, 6 days of therapy): 0.99 mg/kg/72 h
- 1 Log Kill mg/kg/72 h (S. pneumoniae; SP1396, 6 days of therapy): 0.61 mg/kg/72 h
- 2 Log Kill mg/kg/72 h (S. pneumoniae; SP1396, 6 days of therapy): 0.69 mg/kg/72 h
- 1 log kill dose (S. pneumoniae; SP10813, q 12 h): 2.8 mg/kg
- 2 log kill dose (S. pneumoniae; SP10813, q 12 h): 3.5 mg/kg
- 1 log kill dose (S. pneumoniae; SP10813, q 24 h): 1.54 mg/kg
- 2 log kill dose (S. pneumoniae; SP10813, q 24 h): 1.75 mg/kg
- 1 log kill dose (S. pneumoniae; SP10813, q 72 h): 0.77 mg/kg
- 2 log kill dose (S. pneumoniae; SP10813, q 72 h): 0.82 mg/kg
- 1 Log Kill mg/kg/72 h (S. pneumoniae; SP10813, 6 days of therapy): 0.77 mg/kg/72 h
- 2 Log Kill mg/kg/72 h (S. pneumoniae; SP10813, 6 days of therapy): 0.82 mg/kg/72 h
- drop in cfu over the 6 day study (S. pneumoniae; all strains): > 4 log10
- less drug required against pneumococci than S. aureus, based upon 24 h AUC/MIC (S. pneumoniae; every 24 h dosing): 12 to 23 fold
- free drug 24 h AUC/MIC associated with a static effect (S. pneumoniae; every 72 h dosing, 6 days): 7.2±4.5
- free drug AUC/MIC over the 6 days of therapy required for efficacy (S. pneumoniae; net static effect, 1 or 2 log kill): ~100
- reduction in doses necessary for efficacy in presence of neutrophils (S. pneumoniae; normal vs neutropenic mice, 24-hour dosing, not statistically significant): 1.7- to 2.1 fold
- premature discontinuation of treatment due to an AE [2]: No dalbavancin-treated patient discontinued treatment prematurely due to an AE
- P450 induction (P450): did not induce any P450 activity
- eradication/presumed eradication rate at FU, all organisms (Gram-positive pathogen; single-dose dalbavancin): 58%
- microbiologic success rate at EOT (Gram-positive pathogen; single-dose dalbavancin): 38.5%
- microbiologic success rate at FU (Gram-positive pathogen; single-dose dalbavancin): 27.3%
- eradication/presumed eradication rate at FU, all organisms (Gram-positive pathogen; two-dose dalbavancin): 92%
- microbiologic success rate at EOT (Gram-positive pathogen; two-dose dalbavancin): 72.7%
- microbiologic success rate at FU (Gram-positive pathogen; two-dose dalbavancin): 72.7%
